Assay results from US5728885A, “Method of preparing the enantiomers of O-dimethyltramadol” (priority 1996, dated 1998).
Structures can show the parent of a compound that is named as a salt. Where two headings read alike, the source gives them in different places.

Tests used:
[1] = test system: phenylquinone-induced writhing; test: phenylquinone-induced writhing test on mice (analgesia); assay type: in vivo, male NMRI mice; conditions: Mus musculus, read-out: ED50 in the writhing test
Procedure: Testing for analgesia using the writhing test on mice
Testing for analgesic effectiveness was performed using the phenylquinone-induced writhing test on mice (modified according to I. C. Hendershot, J. Forsaith, J. Pharmacol. Exp. Ther. 125, 237-240 (1959)). […]. For each dose of substance, groups of 10 animals received, 10 minutes after the intravenous administration of the compounds to be used according to the invention, 0.3 ml per mouse of an 0.02% aqueous solution of phenylquinone (phenylbenzoquinone: manufactured by Sigma, Deisenhofen; solution prepared with the addition of 5 % ethanol and kept on a water bath at 45° C.) administered intraperitoneally. The animals were placed individually in observation cages, and the number of pain-induced stretching movements (so-called writhing reactions=straightening of the body with stretching of the rear extremities) 5-20 minutes after the administration of phenylquinone was counted by means of a push-button counter. The ED50 values were calculated with a 95% confidence limit by means of regression analysis (evaluation program supplied by Martens EDV Service, Eckental) from the dose-dependent decrease in the writhing reactions, by comparison with control groups which were tested in parallel and which were treated with phenylquinone only.

[2] = test system: thermal radiation pain (tail flick); test: thermal radiation (tail flick) test on rats (analgesia); assay type: in vivo, female Sprague Dawley rats; conditions: Rattus norvegicus, 20 min, read-out: ED50 in the tail flick test
From the text: Testing for analgesia using the tail flick test on rats
The analgesic effectiveness of the compounds to be used according to the invention was investigated in the thermal radiation (tail flick) test on rats using the method of D'Amour and Smith (J. Pharm. Exp. Ther. 72, 74-79 (1941). Female Sprague Dawley rats with a weight of 120-160 g were used for this purpose. The animals were placed individually in test cages and the bases of their tails were exposed to the focused thermal radiation from an electric lamp (Rhema Analgesiemeter for rats). The lamp intensity was adjusted so that the time from switching on the lamp until the sudden twitching away of the tail (latency of pain) was 3-6 seconds for untreated animals. Before the administration of the compounds to be used according to the invention, the animals were tested twice within five minutes and the average value of these measurements was calculated as the pre-test average. The pain measurement was made 20, 40 and 60 minutes after intravenous administration. […]. In order to determine the dosage-dependency, the compounds were administered in doses increasing logarithmically by a factor of 3-5, which included the threshold and the maximum effective dose each time. The ED50 values were determined from the number of analgesic animals by the method of Litchfield and Wilcoxon (J. Pharm. Exp. Ther. 96, 99-113, (1949)). The ED50 was calculated at the effective maximum 20 minutes after intravenous administration of the substance.

[3] = analgesic effect (statement in words); assay type: in vivo; conditions: on its own or in combination with tramadol
[4] = intravenous, phenylquinone i.p. 10 minutes after compound, writhing counted 5-20 minutes after phenylquinone, mice
[5] = intravenous, 20 minutes after administration, >150 % of pre-test average latency, rats

Row | SMILES | ED50 ([1]; iv) [mg/kg] | ED50 ([2]; iv) [mg/kg] | analgesic effect [3] | ED50 [1, 4] [mg/kg] | ED50 [2, 5] [mg/kg]
1 | COc1cccc([C@@]2(O)CCCC[C@@H]2CN(C)C)c1.Cl (racemic) [racemic tramadol hydrochloride, (1RS, 2RS)-2-dimethylaminomethyl-1-(3-methoxy-phenyl)-cyclohexanol hydrochloride, reference compound] | 3.59 | 6.47 | – | – | –
2 | CN(C)C[C@H]1CCCC[C@]1(O)c1cccc(O)c1 (relative stereo) [O-demethyltramadol] | – | – | high analgesic effect | – | –
3 | CN(C)C[C@H]1CCCC[C@]1(O)c1cccc(O)c1 [(+)-enantiomer of O-demethyltramadol hydrochloride, (+)-(1R, 2R)-3-(2-dimethyl-aminomethyl-1-hydroxy-cyclohexyl)-phenol hydrochloride] | – | – | – | 0.489 | 1.01
4 | CN(C)C[C@@H]1CCCC[C@@]1(O)c1cccc(O)c1 [(-)-enantiomer of O-demethyltramadol hydrochloride, (-)-(1S, 25)-3-(2-dimethylaminomethyl-1-hydroxy-cyclohexyl)-phenol hydrochloride] | – | – | – | 6.6 | > 10
